Experimental data published in patent US20070129411A1, “Treatment of proliferative diseases with epothilone derivatives and radiation” (priority 2003, published 2007).
Entries after “also recorded” stand apart in the source; their conditions may differ.

Experiments:
E1A/ras-transformed MEFs = test: clonogenic survival assay, E1A/ras-transformed MEF; format: cell-based, murine; conditions: 24 h drug exposure then irradiation
Method: (§1) Tumor cell proliferation was assessed by the calorimetric MTT-like alamarBlue assay that is based on detection of metabolite activity. To determine clonogenic survival the number of singular cells plated was adjusted to obtain about 100 colonies per dish with a given treatment. After 24 h exposure to the different drugs cells were irradiated and then allowed to grow for 8 to 10 days before fixation In methanol/acetic acid (75%/25%) and staining with crystal violet. Only colonies with more than 50 cells/colony were counted. The plating efficiency (PE) of untreated cells was determined and calculated as PE (%)=(scored colonies/number of plated cells)×100. The surviving fraction (SF) with a given treatment was determined by SF=(scored colonies)/(number of plated cells×PE/100). Clonogenic assays were performed at least twice and absence of error bars is due to minimal standard deviations. Irradiation of cell cultures was carried out at RT in tissue culture dishes (100×100 mm) or in 96-well plates using a Pantak Therapax […] X-ray unit at 0.7 Gy/min. Dosimetry was controlled with a Vigilant-dosimeter.
(§2) The clonogenic assay is based on the outgrowth of compact clones from singular cells that are seeded at low density in a petri dish. Clonal outgrowth under the different treatment conditions can be quantified and compared.

SW480 = test: clonogenic survival assay, SW480; format: cell-based, human
Method: as §1, §2

[1] = test system: E1A/ras transformed p53-/- MEF; format: cell-based, murine; conditions: for proliferative activity, drug alone / proliferative activity, drug in combination with ionizing radiation: murine fibrosarcoma cell line, low nanomolar range, comparable extent for both drugs
Method: as §1, with “Clonogenic assays were performed at least twice and absence of error bars is due to minimal standard deviations.” left out
(§3) Initial proliferation assays were performed to determine the dose range of epothilone B to be applied for combined treatment with ionizing radiation. […] For this combined treatment modality cells were pretreated for 24 h with epothilone B prior to irradiation.

[2] = test system: human colon adenocarcinoma cell line SW480; test: alamarBlue tumor cell proliferation assay, SW480; format: cell-based
Method: as §1, with “Clonogenic assays were performed at least twice and absence of error bars is due to minimal standard deviations.” left out
as §3

In the case of `CC(=O)O[C@H]1C(=O)[C@@]2(C)[C@H]([C@H](OC(=O)c3ccccc3)[C@]3(O)C[C@H](OC(=O)[C@H](O)[C@@H](NC(=O)c4ccccc4)c4ccccc4)C(C)=C1C3(C)C)[C@]1(OC(C)=O)CO[C@@H]1C[C@@H]2O` [Paclitaxel, reference compound], the “clonogenic survival, combined treatment with ionizing radiation” value (shortened to “clonogenic survival, combined treatment”) (E1A/ras-transformed MEFs) is reported as “at least additive effect”, the “clonogenic survival, combined treatment” value (SW480; Paclitaxel-resistant SW480, only at very high concentrations of Paclitaxel) is reported as “at least additive effect” and the “proliferative activity, drug alone” value [1] is reported as “reduced the proliferative activity”. For the same compound, the “proliferative activity, drug in combination with ionizing radiation” value [1] was “reduced the proliferative activity” and the “proliferation, response to drug” value ([2]; SW480, doses up to 500 nM) was “refractory”.

`C/C(=C\c1csc(C)n1)[C@@H]1C[C@@H]2O[C@]2(C)CCC[C@H](C)[C@H](O)[C@@H](C)C(=O)C(C)(C)[C@@H](O)CC(=O)O1` [epothilone B] was tested, and the “clonogenic survival, combined treatment” value (E1A/ras-transformed MEFs) was “at least additive effect”, the “clonogenic survival, combined treatment” value (SW480; SW480, 24 h drug exposure then irradiation) was “at least additive effect” and the “clonogenic survival, sensitivity of SW480 relative to MEFs” value (SW480; SW480 compared with E1A/ras-transformed MEFs) was “more sensitive”. The “antiproliferative effect of combined treatment with ionizing radiation” value ([1]; E1A/ras transformed p53-/- MEF, ionizing radiation 5Gy, 24 h drug pretreatment prior to irradiation) was “at least additive antiproliferative effect”, the “antiproliferative dose response, drug alone” value ([1]; E1A/ras transformed p53-/- MEF, over 72 hours, without irradiation) was “subnanomolar and low nanomolar range” and the “proliferative activity, drug alone” value [1] was “reduced the proliferative activity”. For the same compound, the “proliferative activity, drug in combination with ionizing radiation” value [1] was “reduced the proliferative activity”, the “antiproliferative effect of combined treatment with ionizing radiation” value ([2]; SW480, ionizing radiation 5Gy, 24 h drug pretreatment prior to irradiation) was “at least additive antiproliferative effect; also recorded: retains full activity” and the “antiproliferative dose response, drug alone” value ([2]; SW480, over 72 hours, without irradiation) was “subnanomolar and low nanomolar range; also recorded: enhanced sensitivity; also recorded: retains full activity”.
